{"source": "patent US8324395B2", "about": "“Heterocyclic compound and use thereof” (Takeda Pharmaceutical Company Limited, priority 2007, dated 2012)", "data": [{"tested_on": "Colon Cancer Cell HT-29 Intracellular MEK Phosphorylation", "experiment": "Colon cancer cell HT-29 intracellular MEK phosphorylation inhibitory action in vitro", "assay_type": "cell-based", "details": "Homo sapiens; HT-29 cells, 2 hr treatment; phosphorylated MEK1/2 (Ser217/221) by Western blot", "protocol": "A cell suspension (500 μL) of human colon cancer cell HT-29 was plated in a 48-well plate (100,000 cells/well), and the cells were cultured overnight at 37° C. in the presence of 5% CO2, treated with a test compound (250 μL/well) diluted in 3-fold dilution series and cultured for two more hours. After 2 hr, the culture medium containing the test compound was removed, and the cells were lysed with SDS sample buffer (100 μL/well) and heated at 95° C. for 5 min. Thereafter, the cells were applied to SDS-PAGE, and the protein was transferred onto Sequi-Blot™ PVDF Membrane (Bio-Rad) by the Western blot method. The cells were blocked with a block-Ace solution (Snow Brand Milk Products Co., Ltd) dissolved in phosphate buffer to 5% W/V, and reacted overnight with anti-phosphorylated MEK1/2 (Ser217/221) (Cell signaling #9121) diluted 1000-fold with phosphate buffer containing 0.4% block-Ace. The membrane was washed with phosphate buffer containing 0.1% Tween 20 (Wako Pure Chemical Industries, Ltd.), and reacted at room temperature for 1 hr with HRP labeled […] (Cell signaling #7074) diluted 1000-fold with phosphate buffer containing 0.4% block-Ace. The membrane was washed in the same manner as above, chemical luminescence of a phosphorylated MEK1/2 protein labeled with the antibody, which was caused by ECL-plus Detection Reagent (Amersham bioscience), was detected by Luminescent Image Analyzer LAS-1000 (FUJIFILM Corporation). Taking the luminescence of the control group free of the test compound as 100%, the concentration (IC50 value) of the compound necessary for inhibiting the residual luminescence to 50% of the control group was calculated.", "units": {"IC50": "nM"}, "values": [{"smiles": "Cc1ccc(Oc2ccc3nc(NC(=O)C4CC4)sc3c2)cc1NC(=O)c1cccc(C(C)(C)C#N)c1", "note": "[Example A7, 3-(1-cyano-1-methylethyl)-N-[5-({2-[(cyclopropylcarbonyl)amino]-1,3-benzothiazol-6-yl}oxy)-2-methylphenyl]benzamide]", "IC50": "< 500"}, {"smiles": "Cc1ccc(Oc2ccc3nc(NC(=O)CO)sc3c2)cc1NC(=O)c1cccc(C(C)(C)C#N)c1", "note": "[Example A10, 3-(1-cyano-1-methylethyl)-N-(5-{[2-(glycoloylamino)-1,3-benzothiazol-6-yl]oxy}-2-methylphenyl)benzamide]", "IC50": "< 500"}, {"smiles": "CC(C)(C#N)c1cccc(C(=O)Nc2cccc(Oc3ccc4nc(NC(=O)CO)sc4c3)c2)c1", "note": "[Example A14, 3-(1-cyano-1-methylethyl)-N-(3-{[2-(glycoloylamino)-1,3-benzothiazol-6-yl]oxy}phenyl)benzamide]", "IC50": "< 500"}, {"smiles": "CN1CCN(CC(=O)Nc2nc3ccc(Oc4cccc(NC(=O)c5cccc(C6(C#N)CC6)c5)c4)cc3s2)CC1", "note": "[Example A16, 3-(1-cyanocyclopropyl)-N-{3-[(2-{[(4-methylpiperazin-1-yl)acetyl]amino}-1,3-benzothiazol-6-yl)oxy]phenyl}benzamide]", "IC50": "< 500"}, {"smiles": "O=C(CO)Nc1nc2ccc(Oc3cccc(C(=O)Nc4ccc(C(F)(F)F)cc4)c3)cc2s1", "note": "[Example A26, 3-{[2-(glycoloylamino)-1,3-benzothiazol-6-yl]oxy}-N-[4-(trifluoromethyl)phenyl]benzamide]", "IC50": "< 500"}, {"smiles": "CC(C)(C#N)c1cccc(C(=O)Nc2cccc(Oc3ccc4nc(NC(=O)C5CC5)oc4c3)c2)c1", "note": "[Example B3, 3-(1-cyano-1-methylethyl)-N-[3-({2-[(cyclopropylcarbonyl)amino]-1,3-benzooxazol-6-yl}oxy)phenyl]benzamide]", "IC50": "< 500"}]}, {"target": "T1, BRAF (V600E) kinase (Homo sapiens, UniProt P15056, V600E)", "T1 construct": "Flag (N); made in house; host or cells: SF-21 insect cells, recombinant baculovirus BAC-V600E", "T1 sequence (P15056 457-717 V600E limits assumed)": "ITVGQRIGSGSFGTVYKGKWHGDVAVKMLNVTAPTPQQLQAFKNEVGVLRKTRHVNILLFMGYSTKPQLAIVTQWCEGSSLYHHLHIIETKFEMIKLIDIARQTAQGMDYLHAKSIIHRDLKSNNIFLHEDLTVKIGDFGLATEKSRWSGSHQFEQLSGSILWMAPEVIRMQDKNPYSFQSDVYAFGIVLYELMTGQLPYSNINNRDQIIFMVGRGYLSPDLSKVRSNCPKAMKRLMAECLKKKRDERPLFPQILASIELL", "experiment": "Determination of BRAF (V600E) kinase inhibitory activity", "assay_type": "biochemical", "details": "1.0 μM test compound; BRAF (V600E) enzyme, GST-MEK1 (K96R) substrate, [γ-32P]ATP; read-out: Inhibitory rate (%) at 1.0 μM", "protocol": "Human BRAF gene was cloned by PCR using human Testis cDNA library (Clontech) as a template. The primer used for PCR was prepared from base sequence (Genbank Accession No.: NM_004333) information of BRAF gene by adding a base sequence encoding flag peptide and a recognition sequence of the restriction enzyme to area encoding the BRAF kinase domain region, so that the protein contains an N-terminal. Flag. The primer base sequence is shown below.\nThe PCR reaction was conducted using Pyrobest (Takara Shuzo Co., Ltd). The obtained PCR product was electrophoresed on agarose gel (1%), the DNA fragment amplified by PCR was recovered from the gel, and then digested with restriction enzymes EcoRI and SalI. The DNA treated with the restriction enzymes was electrophoresed on agarose gel (1%), and the obtained DNA fragment was recovered. The recovered DNA fragment was ligated to plasmid pFASTBAC1 (Invitrogen) digested with restriction enzymes EcoRI and SalI to give expression plasmid pFB-BRAF, and the base sequence of the insert fragment was confirmed. In addition, mutation was introduced into V600E using a Quick change Site Directed Mutagenesis kit (Stratagene). The base sequences of the primers used are shown in the following.\nThe obtained plasmid was sequenced to confirm the introduction of mutation into V600E. The DNA was digested with restriction enzymes EcoRI and SalI, DNA treated with the restriction enzymes was electrophoresed on agarose gel (1%), and the obtained DNA fragment was recovered. The recovered DNA fragment was ligated to plasmid pFASTBAC1 (Invitrogen) digested with restriction enzymes EcoRI and SalI to give expression plasmid pFB-V600E.\nUsing BAC-TO-BAC Baculovirus Expression System (Invitrogen), virus stock BAC-V600E of recombinant baculovirus was prepared.\nSF-21 cells were sown at 1×10^6 cells/mL to Sf-900II SFM medium (1 L, Invitrogen) containing 10% fetal bovine serum (Trace), 50 mg/L Gentamicin (Invitrogen) and 0.1% Pluronic F-68 (Invitrogen), and shaking culture was performed using a 2 L volume Erlenmeyer flask at 27° C., 100 rpm. After culturing for 24 hr, recombinant baculovirus BAC-V600E (13.4 mL) was added to the mixture, and the mixture was further cultured for 3 days. The culture medium was centrifuged at 2,000 rpm for 5 min to give virus-infected cells. The infected cells were washed with a phosphate buffered saline (Invitrogen), centrifuged under the same conditions, and the cells were preserved at −80° C. The cryopreserved cells were thawed in ice, suspended in buffer A (50 mM Tris buffer (30 mL, pH 7.4) containing 20% glycerol, 0.15 M NaCl) supplemented with Complete Protease Inhibitor (Boehringer), and ruptured 3 times with a Polytron homogenizer (Kinematica) at 20,000 rpm for 30 sec. The ruptured medium was clarified by centrifugation at 40,000 rpm for 30 min and filtered with a 0.45 μm filter. The filtrate was passed through a column packed with Anti-FLAG M2 Affinity Gel (4 mL, Sigma) at a flow rate of about 0.5 mL/min. The column was washed with buffer A, and eluted with buffer A containing 100 μg/mL of FLAG peptide. The buffer of this eluate was exchanged using NAP25 column (Amersham Bioscience) equilibrated with buffer A and the fractions were cryopreserved at −80° C.\nA test compound (2.5 μL) dissolved in dimethyl sulfoxide (DMSO) was added to 37.5 μL of a reaction mixture (25 mM HEPES (pH 7.5), 10 mM magnesium acetate, 1 mM dithiothreitol) containing BRAF (V600E) enzyme (30 ng) and recombinant type protein GST-MEK1 (K96R) 250 ng, and the mixture was incubated at room temperature for 10 min. ATP solution (10 μL, 2.5 μM ATP, 0.1 μCi [γ-^32P]ATP) was added to the obtained mixture, and the mixture was reacted at room temperature for 20 min. The reaction was quenched by adding 50 μL of ice-cooled. 20% trichloroacetic acid (Wako Pure Chemical Industries, Ltd.) to the reaction mixture. […]", "units": {"inhibition at 1 µM": "%"}, "values": [{"smiles": "N#CC1(c2cccc(C(=O)Nc3cccc(Oc4ccc5nc(NC(=O)C6CC6)sc5c4)c3)c2)CC1", "note": "[Example A1, 3-(1-cyanocyclopropyl)-N-[3-({2-[(cyclopropylcarbonyl)amino]-1,3-benzothiazol-6-yl}oxy)phenyl]benzamide]", "inhibition at 1 µM": 98}, {"smiles": "Cc1ccc(Oc2ccc3nc(NC(=O)CO)sc3c2)cc1NC(=O)c1cccc(C2(C#N)CC2)c1", "note": "[Example A6, 3-(1-cyanocyclopropyl)-N-(5-{[2-(glycoloylamino)-1,3-benzothiazol-6-yl]oxy}-2-methylphenyl)benzamide]", "inhibition at 1 µM": 99}, {"smiles": "N#CC1(c2cccc(C(=O)Nc3cccc(Oc4ccc5nc(NC(=O)c6cocn6)sc5c4)c3)c2)CC1", "note": "[Example A15, N-[6-(3-{[3-(1-cyanocyclopropyl)benzoyl]amino}phenoxy)-1,3-benzothiazol-2-yl]-1,3-oxazole-4-carboxamide]", "inhibition at 1 µM": 100}, {"smiles": "O=C(Nc1ccc(C(F)(F)F)cc1)c1cccc(Oc2ccc3nc(NC(=O)C4CC4)sc3c2)c1", "note": "[Example A25, 3-({2-[(cyclopropylcarbonyl)amino]-1,3-benzothiazol-6-yl}oxy)-N-[4-(trifluoromethyl)phenyl]benzamide]", "inhibition at 1 µM": 100}, {"smiles": "O=C(Nc1cccc(C(F)(F)F)c1)c1cccc(Oc2ccc3nc(NC(=O)C4CC4)sc3c2)c1", "note": "[Example A29, 3-({2-[(cyclopropylcarbonyl)amino]-1,3-benzothiazol-6-yl}oxy)-N-[3-(trifluoromethyl)phenyl]benzamide]", "inhibition at 1 µM": 100}, {"smiles": "O=C(Nc1cccc(Oc2ccc3nc(NC(=O)C4CC4)oc3c2)c1)c1cccc(C(F)(F)F)c1", "note": "[Example B1, N-[3-({2-[(cyclopropylcarbonyl)amino]-1,3-benzooxazol-6-yl}oxy)phenyl]-3-(trifluoromethyl)benzamide]", "inhibition at 1 µM": 100}, {"smiles": "O=C(Nc1cccc(Oc2ccc3nc(NC(=O)C4CC4)[nH]c3c2)c1)c1cccc(C(F)(F)F)c1", "note": "[Example C1, N-[3-({2-[(cyclopropylcarbonyl)amino]-1H-benzimidazol-6-yl}oxy)phenyl]-3-(trifluoromethyl)benzamide]", "inhibition at 1 µM": 99}]}]}
